# Measurements reported in patent US20090054414A1, “Rufinamide for the Treatment of Post-Traumatic Stress Disorder” (SYNOSIA THERAPEUTICS, priority 2007, published 2009).
# Key:
# Format in all cases: in vivo, mouse
# [1] = test system: male OF-1 “intruder” mice; assay: Intruder test (social withdrawal of intruder mice)
# Protocol: Rufinamide, a Na-channel blocker and anti-epileptic agent, and carbamazepine, an anticonvulsant employed to treat bipolar disorder, were given to male OF-1 “intruder” in oral-doses of 1/3/10 mg/kg, 1 hr before the animals were confronted with an individually-housed, aggressive, male OF-1 resident mouse. […] This increase in social investigation (sociotropic effect) was accompanied by a decrease in the frequency and duration of defensive ambivalence probably through competitive inhibition. No signs of motor stimulation were detected.
# The Intruder test duplicates a territorial encounter between a territory holder (aggressive male) and a subordinate “intruder” mouse. […] In this test the intruders receive the treatment whereas the residents remain untreated. (Dixon, A. K., Huber, C., Lowe, D. J. Clin. Psychiatry. 55 (9) Suppl B, 4-7 (1994)). For purposes of this study, rufinamide and carbamazepine were given orally to intruder mice 1 hr before being introduced singly to aggressive residents using doses of ⅓ and 10 mg/kg.
# Over 60 ethological elements describing the social and non-social behaviour of mice based on the ethogram originally proposed by Grant and Mackintosh (Grant, E. C. Mackintosh, J. H. Behaviour 21: 246-259 (1963) ) and classified according to 9 behavioural categories (Dixon, A. K., Huber, C., Fisch, H. U. Adv. Study. Behaviour. 19: 171-204 (1990)) form the rodent ethogram as used in this test (FIG. 3).
# male OF-1 mice = assay: half-enclosed platform (HEP) test; conditions: 0.32/1/3.2 and 10 mg/kg p.o., 1 hr before testing
# From the text: Rufinamide and carbamazepine were compared in the half-enclosed platform (HEP) test. The test determines how drugs affect the exploratory behaviour of a mouse placed upon a novel, half-enclosed platform and gives information as to whether a drug is a stimulant, depressant or disinhibitory as with, for example the benzodiazepines which increase exploration of the platform. It is also useful for determining duration of action and dose-findings studies. The HEP is a further development of the simple elevated platform used by Kaesermann to assess anxiolytic properties of drugs (Ref. Käsermann H. P. (1986) Psychopharmacol. 89:31-37). In this study carbamazepine and rufinamide were tested in the same dose ranges i.e. 0.32/1/3.2 and 10 mg/kg p.o. of each were given to male OF-1 mice 1 hr before testing.
# The ethogram used consists of 9 elements of exploratory behaviour two of which involve static postures i.e. immobility and stretched attend posture, the latter being an ambivalent element indicative of approach-avoidance conflict. These elements are immediately spontaneous and are not induced by either training or punishment procedures. Upright postures which are posturally demanding are useful to detect muscle relaxation e.g. rearing (FIG. 10).
# Male OF1/IC mice = assay: modified stress-induced hyperthermia (SIH) test
# Protocol: Rufinamide was tested in the modified stress-induced model of anxiety. The stress-induced hyperthermia test in mice is a paradigm developed several years ago to model the expression of autonomic hyperactivity in anxiety (Lecci A, Borsini F, Volterra G, Meli A. (1990) Pharmacological validation of a novel model of anticipatory anxiety in mice. Psychopharmacology; 101:255-61.; Spooren W P, Schoeffter P, Gasparini F, Kuhn R, Gentsch C. (2002) Pharmacological and endocrinological characterisation of stress-induced hyperthermia in singly housed mice using classical and candidate anxiolytics (LY314582, MPEP and NKP608). Eur J Pharmacol; 435:161-70.;Zethof T J J, van der Heyden J A M, Tolboom J B M, Olivier B (1994) Stress-induced hyperthermia in mice: a methodological study. Phys. Behav. 55:109-115.). […] Pharmacol Biochem Behav 72:179-188.
# Male OF1/IC mice (MA205 Tiger code) were obtained several days prior to behavioural testing from Iffa Credo (L'Arbresle, France; 18-20 g) and housed in groups of 15 animals per cage (macrolon cages 42H26H15 cm, Type 4). The animals were individually housed (macrolon cage: 26H21H14 cm, Type 2) 24 h before testing. The day preceding the experiment, all cages were transferred to the testing room—and background noise (radio) was used during the light cycle. Both the animal room and the laboratory were temperature controlled and equipped with artificial illumination (L12:D12; lights on 06:00). Mice always had ad libitum access to water and food (Ecosan, Eberle Nafag A G, Gossau, Schweiz).
# The test procedure for the modified stress-induced hyperthermia was adapted from van der Heyden et al. (1997). Rectal temperature was measured in each mouse twice, i.e. at t=0 min (T1) and t=+15 min (T2). The difference in temperature (T2-T1) was considered to reflect the stress-induced hyperthermia (SIH). […] In addition, a comparison between T1 in vehicle-treated mice and in animals treated with a given dose of a test-compound was used, to measure whether a test-compound affected body temperature alone.
# Rectal temperature was measured to the nearest 0.1° C. by an ELLAB instruments (Copenhagen, Denmark) thermometer Model DM 852 by inserting a lubricated thermistor probe model PRA-22002-A (ELLAB, Copenhagen, Denmark) (2.2 mm diameter) 20 mm into the rectum; the mouse was hand held at the base of the tail during this determination and the thermistor probe was left in place for 15 s.
# All drugs were made up fresh and dissolved in vehicle (0.5% methylcellulose) and administered per os (p.o.) in a volume of 10 ml/kg.
# All data was analysed using a one-way analysis of variance (ANOVA) followed where appropriate by Dunnett test of multiple comparisons. The level of significance was set at p<0.05.
# [2] = 1/3/10 mg/kg oral, 1 hr before encounter
smiles,measurement,setting,value
"NC(=O)c1cn(Cc2c(F)cccc2F)nn1 [rufinamide, 1-(2,6-difluorobenzyl)-1H-1,2,3-triazole-4-carboxamide]","non-social (NS) behaviour, frequency","[1]; 1/3/10 mg/kg oral, 1 hr before 6 minute encounter","significant, dose-related increase"
same,social investigation (SI),"[1]; 1/3/10 mg/kg oral, 1 hr before 6 minute encounter, frequency and duration","increased, albeit in a bell-shaped manner with only changes at 3 mg/kg attaining significance"
same,"duration of defensive ambivalence (DA), arrested flight (AF) and escape",[1]; [2],significantly reduced but not uniformly
same,frequencies of arrested flight and escape,[1]; [2],only reduced significantly at 1 mg/kg
same,time spent in non-social activities,[1]; [2],only weakly following suit
same,total number of ethological elements performed in the 6 minute encounter,[1]; [2],increased in a dose-related manner
same,time spent in static flight (SF) postures,"[1]; at 3 and 10 mg/kg oral, 1 hr before encounter",significant shortening
same,dose which is sociotropic in the intruder test,[1]; oral,3 mg/kg
same,changes in durations of exploratory and stationary elements,male OF-1 mice,followed suit but rarely attained statistical significance
same,duration of head raising in the open half,male OF-1 mice,increased
same,duration of inactivity (sta) in the enclosed half,male OF-1 mice,shortened
same,"frequencies of stationary elements (Sta: sitting still, inactivity)",male OF-1 mice,decreased in a significant manner
same,"exploratory elements stretched attend posture (sap), head raising (hu) and forward locomotion (go), frequency",male OF-1 mice; dose-related,significantly increased
same,body temperature T2 (15 min after stress),"Male OF1/IC mice; first experiment, rufinamide 100 mg/kg p.o., p<0.001",significant lower body temperature than control animals
same,SIH response (T2-T1),"Male OF1/IC mice; first experiment, rufinamide 3, 10, 30, 100 mg/kg p.o., 60 min before T1, n=12","only the positive control CDZ (10 mg/kg, p.o.) reversed significantly"
same,dose eliciting a robust reversal of the physiological response to an acute stressor,Male OF1/IC mice; p.o.,> 30 mg/kg
same,doses needed to induce robust anxiolytic-like effects in the SIH paradigm,Male OF1/IC mice; p.o.,100 to 300 mg/kg
same,SIH response (T2-T1),"Male OF1/IC mice; pooled data of all 3 experiments, rufinamide 30, 50, 100, 200 and 300 mg/kg p.o.",significantly attenuated
same,body temperature T2 (15 min after stress),"Male OF1/IC mice; pooled data, rufinamide 25, 50, 100, 200 and 300 mg/kg",significant lower body temperature than control animals
same,SIH response (T2-T1),"Male OF1/IC mice; second experiment (0.3, 3, 30, 300 mg/kg tested), rufinamide 0.3, 30 and 300 mg/kg p.o. (p<0.05, p<0.01, p<0.001)",significantly attenuated
same,body temperature T2 (15 min after stress),"Male OF1/IC mice; second experiment, rufinamide at the highest doses (30 and 100 mg/kg, p.o.)",significant lower body temperature than control animals
same,SIH response (T2-T1),"Male OF1/IC mice; third experiment (25, 50, 100, 200 mg/kg tested), rufinamide 50 (p<0.05), 100 and 200 mg/kg p.o. (p<0.001)",significantly reduced
same,body temperature T2 (15 min after stress),"Male OF1/IC mice; third experiment, rufinamide 100 and 200 mg/kg p.o.",significant lower body temperature than control animals
